# Reference: patent US7847058B2, “Method of modulating cell survival, differentiation and/or synaptic plasticity” (priority 2003, dated 2010)
# Changes are numbered by the printed parent chain. Numbers in names are those of the source. Where no limit is named, active and inactive come without a cut-off here. Entries after “also recorded” stand apart in the source; their conditions may differ.
# B1: Ig1-2-3: recombinant Ig1-2-3 fragment of rat NCAM, residues 1-289 (protein)
# chain: RVLQVDIVPSQGEISVGESKFFLCQVAGDAKDKDISWFSPNGEKLSPNQQRISVVWNDDDSSTLTIYNANIDDAGIYKCVVTAEDGTQSEATVNVKIFQKLMFKNAPTPQEFKEGEDAVIVCDVVSSLPPTIIWKHKGRDVILKKDVRFIVLSNNYLQIRGIKKTDEGTYRCEGRILARGEINFKDIQVIVNVPPTVQARQSIVNATANLGQSVTLVCDADGFPEPTMSWTKDGEPIENEEEDDEKHIFSDDSSELTIRNVDKNDEAEYVCIAENKAGEQDASIHLKVFAK
# modifications: rat NCAM fragment amino acid residues 20-308 and cloning artifacts
# B2: Ig1-2-3mut: Ig1-2-3 mutant containing the substitutions E11A, E16A, and K18A (protein)
# chain: B1 chain with E13A, E18A, K20A
# B3: Ig3: recombinant Ig3 module of rat NCAM, residues 191-289, produced in P. pastoris (protein)
# chain: EAEAYGRILARGEINFKDIQVIVNVPPTVQARQSIVNATANLGQSVTLVCDADGFPEPTMSWTKDGEPIENEEEDDEKHIFSDDSSELTIRNVDKNDEAEYVCI
# B4: Ig3mut1: Ig3 mutant with substitutions R198A, D249G, E287A (E253A) (protein)
# chain: B3 chain with R32A, D83G, E87A
# Legend:
# [1] = test system: cerebellar granule neurons (CGN); test: Neurite outgrowth of CGN grown as single neurons in primary culture; type: cell-based, rat; details: 24 h, different concentrations of the peptide in growth media
# Procedure: (§1) Cerebellar granule neurons (CGN) were prepared from Wistar rat pups of postnatal day 3. Cerebellar tissue was dissected in modified Krebs-Ringer solution kept on ice, and treated as described for the hippocampal neurons above. All cell cultures were incubated at 37° C. in a humidified atmosphere containing 5% CO2. All animals were handled in accordance with the national guidelines for animal welfare. Primary cultures of CGN were plated at a density of 100,000 cells/cm^2 on poly-L-lysine coated 8-well permanox slides in Neurobasal-A medium (Gibco, BRL) supplemented with 2% (v/v) B27, 0.5% (v/v) glutamax, 100 U/ml penicillin, 100 μg/ml streptomycin and KCl, making the final concentration of KCl in the medium 40 mM. 24 hours after plating, cytosine-β-D-arabinofuranoside (Ara-C; Sigma-Aldrich) was added to a final concentration of 10 μM to avoid proliferation of glial cells, after which the neurons were allowed to differentiate for further six days at 37° C.
# (§2) To evaluate the length of neurites of CGN, the neurons were fixed after 24 hours in culture with 4% (v/v) formaldehyde for 20 minutes and thereafter immunostained using primary rabbit antibodies against GAP-43 and Alexa Fluor secondary goat anti-rabbit antibodies. Images of at least 200 neurons for each group in each individual experiment were obtained systematically by using computer assisted fluorescence microscopy
# (§3) The total neurite length per cell was analyzed using the software ProcessLength (Rønn et al., 2000). Five independent experiments with the Ig3 module, its mutants, and the individual peptides were performed. In each experiment neurites from 200-300 cells were analyzed. In order to compare results of individual experiments and due to the inherently high variability of cell experiments, the data were normalized setting the difference between the average neurite length of PC12-E2 cells grown on NCAM-140-transfected and vector-transfected fibroblasts to 100%. Statistical evaluations were performed using a two-sided Student's t-test.
# [2] = test system: cerebellar granule neurons (CGN); test: Neurite outgrowth of CGN in co-culture with fibroblasts with (LBN) or without (LVN) NCAM expression; type: cell-based, rat; details: for NCAM-dependent neurite outgrowth of CGN in co-cultures of CGN and LBN-cells: fibroblasts with NCAM expression (LBN); for NCAM-independent neurite outgrowth of CGN in both cultures: single-neuron primary culture 24 h and co-culture with fibroblasts
# Procedure: as §1
# (§4) Ig3 wt, Ig3mut1, and Ig3mut2 were tested at a concentration of 500 μg ml^−1.
# as §2, §3
# [3] = test system: cerebellar granule neurons (CGN); test: as above; type: cell-based, rat; details: co-cultures of PC12-E2 or CGN cells with fibroblasts expressing NCAM; cell type not specified
# [4] = test system: NCAM-expressing PC12-E2 cells; test: Neurite outgrowth of PC12-E2 cells grown on a confluent monolayer of NCAM-140- or vector-transfected L929 fibroblasts; type: cell-based; details: co-culture 24 h; for NCAM-induced neurite outgrowth of PC12-E2 cells grown on NCAM-140-transfected (LBN) fibroblasts: Ig3 wt, Ig3mut1, Ig3mut2 at 500 μg ml^−1
# Procedure: The NCAM-expressing pheochromocytoma PC12-E2 cell line (Wu and Bradshaw, 1995) was a gift from Dr. Klaus Seedorf, Hagedorn Research Institute, Denmark. The cells were grown in Dulbecco's Modified Eagle's Medium (DMEM) supplemented with 5% v/v fetal calf serum (FCS) and 10% v/v horse serum (HS), 100 U ml^−1 penicillin, 100 μg ml^−1 streptomycin (all from Gibco BRL) at 37° C. in a humidified atmosphere containing 5% CO2.
# The fibroblastoid mouse cell line, L929 (European Cell Culture Collection), was stably transfected with the eukaryotic expression vector pHβ-Apr-1-neo (Gunning et al., 1987) containing a full-length cDNA encoding human 140 kDa NCAM-B or the vector alone. […] The cells were routinely grown at 37° C., 5% CO2 in DMEM supplemented with 10% v/v FCS, 100 U ml^−1 penicillin, and 100 μg ml^−1 streptomycin. For analysis of neurite outgrowth, PC12-E2 cells (8,000 cells per well) were seeded on top of a confluent monolayer of transfected fibroblastoid L929 cells in four-well LabTek Tissue Culture Chamber Slides (NUNC). The cells were grown for 24 h in DMEM supplemented with 1% v/v HS, before analysis.
# as §4
# To evaluate the length of processes of PC12-E2 cells, the co-cultures were fixed in 4% w/v paraformaldehyde for 25 min. After washing in PBS, cells were blocked with 10% v/v goat serum (DAKO) for 30 min and subsequently incubated for 1 h at room temperature with a mouse monoclonal anti-Thy-1 antibody (Caltag Laboratories) (1:100 in PBS containing 10% v/v goat serum). After washing, cells were incubated for 1 h at room temperature with Alexa-Fluor 568™ goat anti-mouse IgG (Molecular Probes) (1:1000 in PBS containing 10% goat serum). All washes were performed for 10 min in PBS, and repeated three times.
# as §3
# [5] = test system: NCAM-mediated cell aggregation; details: Soroka et al., 2002; cited from earlier work
# [6] = Dynamic light scattering (DLS) of recombinant proteins in solution; type: physicochemical; details: deglycosylated protein, 4 mg ml^−1, PBS pH 7.4, 18° C.
# Procedure: Measurements were performed using a DynaPro-MS/X instrument (Protein Solutions) at 18° C. The deglycosylated preparations of Ig1-2-3 (4 mg ml^−1), Ig1-2-3mut (4 mg ml^−1) and Ig3 (10 mg ml^−1) in PBS pH 7.4 were used to determine the molecular weight of the recombinant proteins in solution.
molecule,measurement,setting,value
"AFSPNGEKLSPNQ (H-AFSPNGEKLSPNQ-NH2) [P1-CD, represents the Ig1-to-Ig3 contact]",neurite outgrowth (differentiation) of single CGN in primary culture,[1],did not stimulate
same,NCAM-dependent neurite outgrowth of CGN in co-cultures of CGN and LBN-cells,[2],inhibits; also recorded: capable modulating
same,NCAM-independent neurite outgrowth of CGN in both cultures,[2],does not affect
"DVRRGIKKTD (H-DVRRGIKKTD-NH2) [P2-CD, represents the Ig2-to-Ig3 contact, Ig2 module]",NCAM-stimulated neurite outgrowth in co-cultures,[3],did not affect
same,neurite outgrowth (differentiation) of single CGN in primary culture,[1],very capable stimulators
"GEISVGESKFFL (H-GEISVGESKFFL-NH2) [P1-B, covers the B β-strand of Ig1, represents the Ig1-to-Ig2 contact]",NCAM-induced neurite outgrowth of PC12-E2 cells grown on NCAM-140-transfected (LBN) fibroblasts,[4],inhibitory effects comparable to the effect of Ig3 wt; also recorded: inhibited
GRILARGEINFK (rat NCAM Ig2 fragment amino acid residues 172-182) [P2 peptide],effect on cell aggregation,[5],inhibitory effect
"KHIFSDDSSELTIRNVDKNDE (H-KHIFSDDSSELTIRNVDKNDE-NH2) [P3-DE, covers D and E β-strands and E-F loop of the Ig3 module]",NCAM-induced neurite outgrowth of PC12-E2 cells grown on NCAM-140-transfected (LBN) fibroblasts,[4],inhibitory effects comparable to the effect of Ig3 wt; also recorded: inhibited
"QEFKEGEDAVIV (H-QEFKEGEDAVIV-NH2) [P2-A′B, represents the Ig2-to-Ig2 contact]",neurite outgrowth (differentiation) of single CGN in primary culture,[1],did not stimulate
same,NCAM-dependent neurite outgrowth of CGN in co-cultures of CGN and LBN-cells,[2],inhibits; also recorded: capable modulating
same,NCAM-independent neurite outgrowth of CGN in both cultures,[2],does not affect
"QIRGIKKTD (H-QIRGIKKTD-NH2) [P2-EF, represents the Ig2-to-Ig3 contact, Ig2 module]",NCAM-stimulated neurite outgrowth in co-cultures,[3],did not affect
same,neurite outgrowth (differentiation) of single CGN in primary culture,[1],very capable stimulators
"SIHLKVFAK (H-SIHLKVFAK-NH2) [P3-G, C-terminal part of the G β-strand of Ig3]",NCAM-stimulated neurite outgrowth in co-cultures,[3],did not affect
same,neurite outgrowth (differentiation) of single CGN in primary culture,[1],very capable stimulators
same,NCAM-induced neurite outgrowth of PC12-E2 cells grown on NCAM-140-transfected (LBN) fibroblasts,[4],inhibitory effects comparable to the effect of Ig3 wt; also recorded: inhibited
"TLVADADGFPEP (H-TLVADADGFPEP-NH2) [P3-B, control peptide covering the B β-strand and B-C loop of the Ig3 module, reference compound]",NCAM-induced neurite outgrowth of PC12-E2 cells grown on NCAM-140-transfected (LBN) fibroblasts,[4],not active
B1,molecular weight in solution by DLS (oligomeric state),[6],~78 kDa
B2,molecular weight in solution by DLS (oligomeric state),[6],~34 kDa
B3,NCAM-induced neurite outgrowth of PC12-E2 cells grown on NCAM-140-transfected (LBN) fibroblasts,[4],clearly inhibits
same,NCAM-induced neurite outgrowth of PC12-E2 cells grown on NCAM-140-transfected (LBN) fibroblasts,[4]; listed as Ig3 wt,inhibitory effect
same,neurite outgrowth of PC12-E2 cells grown on vector-transfected (LVN) fibroblasts,[4]; NCAM-negative fibroblasts,does not affect
B4,NCAM-induced neurite outgrowth of PC12-E2 cells grown on NCAM-140-transfected (LBN) fibroblasts,[4],inactive
